Results as given in publication PMC9057582, “HIF inhibitor 32-134D eradicates murine hepatocellular carcinoma in combination with anti-PD1 therapy” (The Journal of Clinical Investigation, 2022).

Columns and labels:
[1] = system: hypoxia-induced genes in Hep3B cells; assay: RNA sequencing of Hep3B cells; format: cell-based, human; details: 5 μM, 1% O2, 24 hours
Protocol: RNA sequencing (RNA-seq) was performed on 3 biological replicates of Hep3B cells exposed for 24 hours to vehicle at 20% O2, vehicle at 1% O2, or 5 μM 32-134D at 1% O2. […] Overall, 32-134D inhibited the expression of 4,689 genes, of which the 3,326 hypoxia-induced genes represented 71% of the total.
RNA was extracted using TRIzol Reagent. Quantitative real-time PCR was conducted using SYBR Green PCR Master Mix and reactions were run using a Bio-Rad thermal cycler. Primer sequences and reagent sources are listed in Supplemental Table 5. The mRNA expression of target genes was normalized to the expression of 18S rRNA and the fold change (FC) was calculated based on the threshold cycle (Ct) as FC = 2^–Δ(ΔCt), where ΔCt = Cttarget gene – Ct18S rRNA and Δ(ΔCt) = ΔCttreatment – ΔCtcontrol. For RNA-seq, total RNA was isolated and treated with DNase (Qiagen). […] An automated data analysis pipeline run in the Genialis platform consisted of the following: Sequence quality checks were performed on raw and trimmed reads with FastQC. Bbduk was used to trim adapters and filter out poor quality reads. Trimmed reads were then mapped to the STAR index (ENSEMBL 100) reference genome using the STAR ([93]) aligner. Gene expression levels were quantified with featureCounts ([94]), and differential gene expression analyses were performed with DESeq2 ([95]). […]

Hep3B tumor xenograft [2] = assay: Hep3B tumor xenograft growth in nude mice; format: in vivo, nude (nu/nu) mice
Protocol: Hep3B cells were injected subcutaneously into nude (nu/nu) mice and when tumors reached a volume of 150 mm^3 (designated day 1), the mice were treated with vehicle or 32-134D by daily intraperitoneal injection. […] Treatment with 32-134D for 17 days had no effect on mouse appearance, behavior, or body weight (Supplemental Figure 4B). We treated additional mice with 32-134D at a dose of 40 mg/kg versus vehicle and confirmed inhibition of tumor growth without effects on body weight (Supplemental Figure 5, A–C).
(§1) Figure 2 Effect of 32-134D on Hep3B tumor xenograft growth and vascularization. (A) Female nude mice received a subcutaneous injection of […] Hep3B cells. When tumors reached a volume of 150 mm^3 (designated treatment day 1), the mice were randomized to receive a daily intraperitoneal injection of 32-134D at a dose of 0 (blue), 20 (black), 40 (red), or 80 (green) mg/kg. Data are presented as mean tumor volume (± SEM; n = 4 each). **P < 0.01, ***P < 0.001 (ANOVA with Bonferroni’s post hoc test). (B) Gross pathology of tumors harvested from vehicle-treated (top panel) and 32-134D–treated (bottom panel) mice. (C) Nuclear extracts prepared from tumors were assayed by immunoblotting using antibodies against the indicated proteins. (D) Total RNA was isolated from tumor tissue and analyzed by RT-qPCR using primers specific for the indicated mRNAs and results (mean ± SEM, n = 4) were normalized to the mean value for tumors from vehicle-treated mice. (E) ELISA for the indicated proteins was performed using aliquots of tumor lysates (mean ± SEM; n = 3–4 tumors each). *P < 0.05 (Mann-Whitney test). (F) Formalin-fixed and paraffin-embedded tumor sections were analyzed by immunohistochemistry using an antibody against CD31 to identify vascular endothelial cells. Scale bar: 100 μm. The total CD31^+ vessel area per field was quantified using ImageJ (mean ± SEM; n = 4 tumors with 5 sections per tumor). *P < 0.05 (Student’s t test).
(§2) Female nude mice (NCI Athymic NCr-nu/nu) and male C57L mice were purchased from Charles River and The Jackson Laboratory, respectively. Hep3B (8 × 10^6) and Hepa1-6 (1 × 10^7) cells were resuspended in PBS and Matrigel (1:1, vol/vol) and implanted subcutaneously in 6- to 8-week-old mice, and tumor volume was calculated as V = abc × 0.52. For Hep3B tumor studies, once tumors reached 100 to 150 mm^3, mice were randomized into groups to receive daily intraperitoneal injection of either 32-134D or vehicle only (20% PEG-400, 10% Cremophor EL, 10% ethanol in PBS). For Hepa1-6 tumors, mice were randomized to receive treatment once tumors became palpable (tumor eradication experiment) or reached a volume of 200 mm^3 (harvesting of tumors for flow cytometry and analysis of RNA and protein expression). Tumors were harvested 4 hours after the last treatment (see Supplemental Table 6 for reagent sources).
Supplemental Figure 4. […]
Female nude mice received a subcutaneous injection of 8 x 10^6 Hep3B cells. […] (A) Tumor volumes were determined every other day. […] (B) Body weights of tumor-bearing mice were measured every other data and are presented as mean + SEM (n = 3-4 per group). […]
Supplemental Figure 5. […] (A-D) Tumor bearing mice were treated with daily intraperitoneal injection of vehicle (black) or 32-134D (red; 40 mg/kg) and individual (A) and mean (B) tumor volumes as well as body weight (C) were determined every other day and mean tumor weights (D) were determined on day 17 (mean + SEM, n =4). *P < 0.05 by ANOVA. […]

Hep3B tumor xenograft [3] = assay: Analysis of Hep3B xenograft tumors (immunoblot, RT-qPCR, ELISA, CD31 immunohistochemistry); format: in vivo, nude (nu/nu) mice
Excerpt: as §1
Intratumoral HIF-1β protein levels were not affected by treatment with 32-134D (Supplemental Figure 5E).
as §2
Tumor samples were fixed in 10% formalin in phosphate buffer for 24 hours and placed in PBS the following day for paraffin embedding and sectioning. Anti-CD31 immunohistochemical staining, hematoxylin and eosin counterstaining, and whole-slide scanning were performed by NDB Bio (www.ndbbio.com).
Tumors were homogenized in ice-cold PBS supplemented with 1% Triton X-100 and PIs, centrifuged at 10,000g for 20 minutes to pellet debris, and the supernatant was collected for ELISA using commercial kits (Supplemental Table 6). Optical density was obtained at 450 nm (corrected for readings at 570 nm) using the VICTOR Nivo plate reader. Sample protein concentration was calculated by linear regression from a standard curve.

Brc1ccc2c(-c3csc(-c4c[nH]c5c(Br)cccc45)n3)c[nH]c2c1 [Compound 32-134D]
total number of genes whose expression was inhibited [1]: 4,689 genes | number of hypoxia-induced genes whose expression was inhibited ([1]; of 3,849 hypoxia-induced mRNAs): 3,326 genes | tumor xenograft growth (Hep3B tumor xenograft [2]; 20 mg/kg daily intraperitoneal, P < 0.01 vs vehicle): partial growth inhibition | tumor xenograft growth (Hep3B tumor xenograft [2]; 40 mg/kg daily intraperitoneal, P < 0.001 vs vehicle): maximal growth inhibition | tumor mass at harvest (Hep3B tumor xenograft [2]; 40 mg/kg, day 17, P < 0.05): significantly decreased | tumor xenograft growth (Hep3B tumor xenograft [2]; 80 mg/kg daily intraperitoneal, P < 0.001 vs vehicle): maximal growth inhibition | mouse appearance, behavior, or body weight (Hep3B tumor xenograft [2]; treatment for 17 days): no effect | VEGFA, EPO, SDF-1α and SCF protein in tumor lysates (Hep3B tumor xenograft [3]; ELISA, P < 0.05): significantly decreased expression | tumor mRNA expression of ANGPTL4, EPO, PGF, CD73, PDL1, VEGFA, SDF-1, SCF (Hep3B tumor xenograft [3]; RT-qPCR, P < 0.05): significant decrease | intratumoral HIF-1β protein levels (Hep3B tumor xenograft [3]; immunoblot): not affected | intratumoral HIF-1α and HIF-2α protein expression (Hep3B tumor xenograft [3]; immunoblot of tumor lysates): almost complete loss | CD31+ blood vessel area in tumors (Hep3B tumor xenograft [3]; immunohistochemistry, P < 0.05): significantly decreased blood vessel area
